Reference: patent US12611406B2, “Oxopiperazine derivatives for the treatment of cancer” (Inthera Bioscience AG, priority 2020, dated 2026)
“Also recorded” adds a separate entry of the source. Like-named read-outs stand apart in the source and are kept apart here.

Experiments:
22Rv1 = test: Caspase 3/7 activation (apoptosis); type: cell-based; set-up: key: “+” (present); “−” (absent); details: Rb wt, p53 wt
Text: (§1) It was noted that cancer cell lines that were growth inhibited at lower concentrations of Compound 1 more frequently responded to Compound 1 exposure with an apoptotic reaction (FIG. 2). Since PC cell lines were among the cancer cell types displaying a particularly high sensitivity to Compound 1 treatment (FIG. 1), the potentially underlying biological reasons for an apoptotic response were investigated in a set of PC cell lines consisting of DU-145, LNCaP, 22Rv1 and PC3 cells.
(§2) In table 1, “wt”=wild-type; “x”=cells harboring Rb and p53 deficiencies; “+” (present) or “−” (absent) indicate the arrest (i.e. accumulation) of cells in S-phase triggered by Compound 1, which coincided with accumulation of the DNA damage marker phosphorylated gamma H2AX (γH2AX; see FIG. 3A). These events are followed by activation of caspases 3 and 7 as indicators of cell apoptosis as indicated by “+” (present) or “−” (absent). In cancer cells with intact Rb and/or p53 functions (wt=wild-type), Compound 1 induced growth arrest but not a substantial increase of cells in S-phase (=S-phase arrest). Upon release of treatment, such cells are able to proliferate again.

BT-549 = test: Caspase 3/7 activation (apoptosis); type: cell-based; set-up: key: “+” (present); “−” (absent); details: Rb x, p53 x
Text: as §1, §2

DU-145 = test: Caspase 3/7 activation (apoptosis); type: cell-based; set-up: key: “+” (present); “−” (absent); details: Rb x, p53 x
Text: as §1, §2

Hut-78 = test: Caspase 3/7 activation (apoptosis); type: cell-based; set-up: key: “+” (present); “−” (absent); details: Rb x, p53 x
Text: as §1, §2

LNCaP = test: Caspase 3/7 activation (apoptosis); type: cell-based; set-up: key: “+” (present); “−” (absent); details: Rb wt, p53 wt
Text: as §1, §2

NCI-H146 = test: Caspase 3/7 activation (apoptosis); type: cell-based; set-up: key: “+” (present); “−” (absent); details: Rb x, p53 x
Text: as §1, §2

NCI-H209 = test: Caspase 3/7 activation (apoptosis); type: cell-based; set-up: key: “+” (present); “−” (absent); details: Rb x, p53 x
Text: as §1, §2

NCI-H660 = test: Caspase 3/7 activation (apoptosis); type: cell-based; set-up: key: “+” (present); “−” (absent); details: Rb x, p53 x
Text: as §1, §2

NCI-H69 = test: Caspase 3/7 activation (apoptosis); type: cell-based; set-up: key: “+” (present); “−” (absent); details: Rb x, p53 x
Text: as §1, §2

NCI-H82 = test: Caspase 3/7 activation (apoptosis); type: cell-based; set-up: key: “+” (present); “−” (absent); details: Rb x, p53 x
Text: as §1, §2

PC3 = test: Caspase 3/7 activation (apoptosis); type: cell-based; set-up: key: “+” (present); “−” (absent); details: Rb wt, p53 x
Text: as §1, §2

SCLC-21H = test: Caspase 3/7 activation (apoptosis); type: cell-based; set-up: key: “+” (present); “−” (absent); details: Rb x, p53 x
Text: as §1, §2

Y-79 = test: Caspase 3/7 activation (apoptosis); type: cell-based; set-up: key: “+” (present); “−” (absent); details: Rb x, p53 wt
Text: as §1, §2

PR6512 = PR6512 mouse PDX prostate cancer model, daily oral; type: in vivo
Text: FIG. 7B the efficacy of Compound 1 in the in vivo mouse PDX prostate cancer model PR6512. […] QD: once daily treatment. po: per os.
Again, an effect of the body weight was detected in all treatment groups (including the vehicle group).

SNU-16 = SNU-16 gastric cancer CDX mouse model; type: in vivo
Text: Left panel: Tumor growth curves. Right panel: Body weight development. […] QW: once weekly treatment. p.o.: per oral. QD: once daily treatment. BID: twice daily treatment. QW: once weekly treatment.
Values larger than 100% indicate tumor regression.

[1] = 28-day once weekly oral repeated-dose DRF TK study in Beagle dogs (mesylate salt), plasma; type: in vivo; details: for AUC / Cmax: both sexes, Beagle, dog, plasma, po
Description: The objective of the study was to determine the TK profile of Compound 1 following 4 weekly oral administrations to Beagle dog and to assess reversibility of any changes following a 13-day recovery period.
The test item Compound 1 (mesylate salt) was administered in 4 weekly doses by oral gavage to groups of Beagle dogs (n=2/sex/group) at dose levels of 10, 15, and 20 mg/kg bodyweight per week. A suspension of 0.5% methylcellulose (w/v) in sterile water served as vehicle. Blood samples for PK analysis were collected for each dosing day (Day 1, 8, 15, and 22) at pre-dose, 0.25, 0.5, 1, 2, 4, 6, 8, 12, and 24 hours after administration.
Total plasma concentrations of Compound 1 were analyzed using a qualified LC-MS/MS method.
Dosing at 15 mg/kg/adm was limited to 2 weekly doses, since animals were subjected to necropsy investigation 3 days after the second dose (Day 8) in order to investigate possible macroscopic changes during the treatment period. n.d.: not determined. AUC parameters were calculated using GraphPad Prism version 9.

[2] = Plasma protein binding, equilibrium dialysis; type: in vitro ADME; details: 37° C, buffer pH 7.4, read-out: Fraction unbound (Fu), Mean
Description: Protein binding of Compound 1 to the plasma from several species, i.e., human, cynomolgus monkey, dog, rat, and mouse was investigated in vitro by incubation in plasma and determination of unbound fraction of Compound 1 using equilibrium dialysis. Compound 1 was incubated in 100% species-specific plasma and added to one side of the membrane in an equilibrium dialysis system while buffer (pH 7.4) is added to the other side. The system was allowed to reach equilibrium at 37° C. Compound concentration on both sides of the membrane is measured by liquid chromatography—tandem mass spectroscopy (LC-MS/MS).

[3] = 10 mg/kg, 10 mg/kg weekly, Day 1
[4] = 10 mg/kg, 10 mg/kg weekly, Day 8
[5] = 10 mg/kg, 10 mg/kg weekly, Day 15
[6] = 10 mg/kg, 10 mg/kg weekly, Day 22
[7] = 15 mg/kg, 15 mg/kg weekly, Day 1
[8] = 15 mg/kg, 15 mg/kg weekly, Day 8

Q: Which results are given for `CC(C)C[C@@H]1NCCN([C@@H](CC(C)C)C(=O)N2CCC3(C[C@@H]2C)OCC(CN2CCCC2)CO3)C1=O` (stereo partly drawn) [Compound 1, (S)-3-isobutyl-1-((S)-4-methyl-1-((S)-8-methyl-3-(pyrrolidin-1-ylmethyl)-1,5-dioxa-9-azaspiro[5.5]undecan-9-yl)-1-oxopentan-2-yl)piperazin-2-one]?
A: Caspase 3/7, 8 (22Rv1): −; Caspase 3/7, 8 (BT-549): +; Caspase 3/7, 8 (DU-145): +; Caspase 3/7, 8 (Hut-78): +; Caspase 3/7, 8 (LNCaP): −; Caspase 3/7, 8 (NCI-H146): +; Caspase 3/7, 8 (NCI-H209): +; Caspase 3/7 activation (NCI-H660): +; Caspase 3/7, 8 (NCI-H69): +; Caspase 3/7, 8 (NCI-H82): +; Caspase 3/7, 8 (PC3): −; Caspase 3/7, 8 (SCLC-21H): +; Caspase 3/7, 8 (Y-79): −; tumor growth (PR6512; 3 mg/kg QD): complete block of tumor growth; tumor growth (PR6512; 1, 1.5, 2, and 3 mg/kg daily oral): dose dependent growth inhibition of tumors; PSA in blood (PR6512; PR6512): effective PSA reduction; Tumor growth inhibition (SNU-16; once weekly 60 mg/kg/day as 30 mg/kg BID, 6 weeks, p <0.001): 103% (<0.001)/**6 weeks; anti-tumor efficacy, weekly vs daily (SNU-16; weekly 30 mg/kg BID compared to 3 mg/kg daily): comparable anti-tumor efficacy; clinical signs ([1]; 15 mg/kg/adm, limited to 2 oral doses (Days 1 and 8)): reduced food and water intake; AUC [1, 3]: 1720 ng·h/mL; Cmax [1, 3]: 536 ng/mL; AUC [1, 4]: 1590 ng·h/mL; Cmax [1, 4]: 512 ng/mL; AUC [1, 5]: 1660 ng·h/mL; Cmax [1, 5]: 497 ng/mL; AUC [1, 6]: 1170 ng·h/mL; Cmax [1, 6]: 360 ng/mL; AUC [1, 7]: 2630 ng·h/mL; Cmax [1, 7]: 752 ng/mL; AUC [1, 8]: 2300 ng·h/mL; Cmax [1, 8]: 506 ng/mL; AUC ([1]; 20 mg/kg, Day 1): 3010 ng·h/mL; Cmax ([1]; 20 mg/kg, Day 1): 994 ng/mL; tolerability ([1]; single oral administration of 20 mg/kg/adm, 20 mg/kg): serious adverse event (SAE) on day 5; also recorded: not tolerated in one female Beagle dog; tolerability ([1]; weekly oral for 4 consecutive weeks at 10 mg/kg/adm): tolerated; fraction unbound ([2]; dog plasma): 0.619; fraction unbound ([2]; human plasma): 0.547; fraction unbound ([2]; mouse plasma): 0.574; fraction unbound ([2]; rat plasma): 0.528
